Laboratory results: patent publication US20260356856A1, “KRAS G12S AND G12C INHIBITORS” (MIRATI THERAPEUTICS, INC., priority 2023, published 2026)

Columns and labels:
[1] = molecular target: T1, KRas-mediated phosphorylation of ERK in MKN1 cells (Homo sapiens, UniProt P01116); test: Inhibition of KRas-mediated phosphorylation of ERK (HTRF), MKN1 cells; type: cell-based; details: MKN1 cells (KRas WT); HTRF pERK; 3 h incubation
T1 construct: pERK HTRF read-out
Protocol: Inhibition of KRas Phosphorylation of ERK (HTRF) by Exemplary Compounds of Formula (Ia) or (Ib)
Cisbio HTRF Advanced pERK Assay Catalog #64AERPEH • Cells: MKN1, PSN1 • Procedure: • 1. Day 1: Seed 6,000 cells/well −25 μl/well in 384-well white solid bottom plate; RPM1_10% FBS. Incubate overnight at 37 °C/5% CO2. • 2.

[2] = molecular target: T2, KRas WT (Homo sapiens, UniProt P01116); test: KRas binding assay, TR-FRET displacement of Cy5 labelled tracer; details: 60-minute incubation at room temperature, 1% DMSO, pH 7.5
T2 construct: Biotinylated KRas (corresponding to amino acids 1-169, produced at Accelegan Inc.); biotin (biotinylated); purchased Accelegan Inc
Summary of the method: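 Compound competes with tracer for biotin-labelled KRas (amino acids 1-169) bound to terbium-streptavidin. Incubation runs 60 minutes at room temperature, final DMSO 1%. IC50 values derive from a 4-parameter fit.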

[3] = molecular target: T3, KRas G12C (Homo sapiens, UniProt P01116, G12C); test: as above; details: 60-minute incubation at room temperature, 1% DMSO, pH 7.5
T3 construct: Biotinylated KRas (corresponding to amino acids 1-169, produced at Accelegan Inc.); biotin (biotinylated); purchased Accelegan Inc
Summary of the method: (§1)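 Displacement measured on KRas residues 1-169 (biotinylated, terbium-streptavidin labelled); 1 h, RT; 1% DMSO final; HEPES pH 7.5 / MgCl2 / Tween-20 / DTT. IC50: 4-parameter fit.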

[4] = molecular target: T4, KRas G12S (Homo sapiens, UniProt P01116, G12S); test: as above; details: 60-minute incubation at room temperature, 1% DMSO, pH 7.5
T4 construct: Biotinylated KRas (corresponding to amino acids 1-169, produced at Accelegan Inc.); biotin (biotinylated); purchased Accelegan Inc
Summary of the method: as §1

[5] = molecular target: T5, KRas-mediated phosphorylation of ERK in A549 cells (Homo sapiens, UniProt P01116, G12S); test: Inhibition of KRas-mediated phosphorylation of ERK (HTRF), A549 cells; type: cell-based; details: HTRF pERK, 3 h incubation
T5 construct: pERK HTRF read-out
T5 sequence (P01116 1-188 isoform P01116-2 G12S): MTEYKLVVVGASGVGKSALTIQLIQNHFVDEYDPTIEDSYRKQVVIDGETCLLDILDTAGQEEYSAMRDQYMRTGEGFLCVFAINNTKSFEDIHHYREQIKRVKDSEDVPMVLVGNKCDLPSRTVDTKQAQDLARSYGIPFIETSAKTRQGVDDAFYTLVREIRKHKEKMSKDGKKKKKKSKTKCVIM

T3 sequence (P01116 1-169 isoform P01116-2 G12C): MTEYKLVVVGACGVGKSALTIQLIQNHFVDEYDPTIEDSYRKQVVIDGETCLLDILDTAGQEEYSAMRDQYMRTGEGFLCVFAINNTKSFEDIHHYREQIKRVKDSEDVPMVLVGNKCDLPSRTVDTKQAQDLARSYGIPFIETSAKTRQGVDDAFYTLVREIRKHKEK
T1 sequence (P01116 1-188 isoform P01116-2): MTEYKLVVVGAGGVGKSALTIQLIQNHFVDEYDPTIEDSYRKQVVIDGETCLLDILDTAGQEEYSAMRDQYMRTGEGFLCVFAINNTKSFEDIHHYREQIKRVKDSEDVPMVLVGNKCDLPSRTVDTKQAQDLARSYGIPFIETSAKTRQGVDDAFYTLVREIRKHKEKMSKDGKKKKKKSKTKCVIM
T4 sequence (P01116 1-169 isoform P01116-2 G12S): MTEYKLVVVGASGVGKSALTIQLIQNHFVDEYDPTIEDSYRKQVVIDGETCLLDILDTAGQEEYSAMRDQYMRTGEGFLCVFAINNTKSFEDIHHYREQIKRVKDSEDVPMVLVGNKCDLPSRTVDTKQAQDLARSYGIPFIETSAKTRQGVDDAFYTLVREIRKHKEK
T2 sequence (P01116 1-169 isoform P01116-2): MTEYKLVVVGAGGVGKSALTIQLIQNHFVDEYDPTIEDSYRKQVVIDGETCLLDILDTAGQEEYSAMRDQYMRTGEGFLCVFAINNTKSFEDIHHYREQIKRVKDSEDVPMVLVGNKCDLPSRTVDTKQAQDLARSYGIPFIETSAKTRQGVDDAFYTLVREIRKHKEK

Row | SMILES | IC50 [1] | IC50 [2] | IC50 [3] | IC50 [4] | IC50 [5]
1 | CCc1c(F)ccc2cc(O)cc(N3CCc4c(nc(OC[C@@]56CCCN5C[C@H](F)C6)nc4N4CCC(C(=O)n5ccc(C)n5)C4)C3)c12 (stereo partly drawn) [Example 197, (1-(7-(8-ethyl-7-fluoro-3-hydroxynaphthalen-1-yl)-2-(((2R,7aS)-2-fluorotetrahydro-1H-pyrrolizin-7a(5H)-yl)methoxy)-5,6,7,8-tetrahydropyrido[3,4-d]pyrimidin-4-yl)pyrrolidin-3-yl)(3-methyl-1H-pyrazol-1-yl)methanone] | 4950 nM | 176 nM | 21 nM | 28 nM | 164 nM
2 | CCc1c(F)ccc2cc(O)cc(N3CCc4c(nc(OC[C@@]56CCCN5C[C@H](F)C6)nc4N(C)CCC(=O)n4ccc(C)n4)C3)c12 [Example 196, 3-((7-(8-ethyl-7-fluoro-3-hydroxynaphthalen-1-yl)-2-(((2R,7aS)-2-fluorotetrahydro-1H-pyrrolizin-7a(5H)-yl)methoxy)-5,6,7,8-tetrahydropyrido[3,4-d]pyrimidin-4-yl)(methyl)amino)-1-(3-methyl-1H-pyrazol-1-yl) propan-1-one] | 2200 nM | 55 nM | 40 nM | 45 nM | > 10000 nM
3 | CCc1c(F)ccc2cc(O)cc(-c3ncc4c(N5CCCC6CC6(C(=O)n6ccc(C)n6)CC5)nc(OC[C@@]56CCCN5C[C@H](F)C6)nc4c3F)c12 (stereo partly drawn) [Example 117, (4-(7-(8-ethyl-7-fluoro-3-hydroxynaphthalen-1-yl)-8-fluoro-2-(((2R,7aS)-2-fluorotetrahydro-1H-pyrrolizin-7a(5H)-yl)methoxy)pyrido[4,3-d]pyrimidin-4-yl)-4-azabicyclo[6.1.0]nonan-1-yl)(3-methyl-1H-pyrazol-1-yl)methanone] | 333 nM | 68 nM | 129 nM | 158 nM | 4050 nM
4 | CCc1c(F)ccc2cc(O)cc(-c3ncc4c(N(C)CCCC(=O)N(C)C(C)=O)nc(OC[C@@]56CCCN5C[C@@]5(CC5(F)F)C6)nc4c3F)c12 [Example 293, N-acetyl-4-((2-(((1S,7a'S)-2,2-difluorodihydro-1′H,3′H-spiro[cyclopropane-1,2′-pyrrolizin]-7a′ (5′H)-yl)methoxy)-7-(8-ethyl-7-fluoro-3-hydroxynaphthalen-1-yl)-8-fluoropyrido[4,3-d]pyrimidin-4-yl)(methyl)amino)-N-methylbutanamide] | 699 nM | 219 nM | 72 nM | 21 nM | 67 nM
5 | Cc1ccn(C(=O)[C@H]2C[C@H]2CNc2nc(OC[C@@]34CCCN3C[C@H](F)C4)nc3c(F)c(-c4ccc(F)c5sc(N)c(C#N)c45)c(Cl)cc23)n1 [Example 182, 2-amino-4-(6-chloro-8-fluoro-2-(((2R,7aS)-2-fluorotetrahydro-1H-pyrrolizin-7a(5H)-yl)methoxy)-4-((((cis)-2-(3-methyl-1H-pyrazole-1-carbonyl)cyclopropyl)methyl)amino)quinazolin-7-yl)-7-fluorobenzo[b]thiophene-3-carbonitrile] | 247 nM | 35 nM | 24 nM | 38 nM | 179 nM
6 | CCc1c(F)ccc2cc(O)cc(-c3c(F)cc4c(N5CCCC(C(=O)n6ccc(C)n6)CC5)nc(OC[C@@]56CCCN5C[C@H](F)C6)nc4c3F)c12 (stereo partly drawn) [Example 174, (1-(7-(8-ethyl-7-fluoro-3-hydroxynaphthalen-1-yl)-6,8-difluoro-2-(((2R,7aS)-2-fluorotetrahydro-1H-pyrrolizin-7a(5H)-yl)methoxy)quinazolin-4-yl)azepan-4-yl)(3-methyl-1H-pyrazol-1-yl)methanone] | 3000 nM | 1120 nM | 1120 nM | 182 nM | 507 nM

The remaining lines, values ahead:

Row | IC50 [1] | IC50 [2] | IC50 [3] | IC50 [4] | IC50 [5] | SMILES
7 | 219 nM | 13 nM | < 2 nM | 3 nM | 16 nM | CCc1c(F)ccc2cc(O)cc(-c3ncc4c(NCCCC(=O)n5ccc(C)n5)nc(OC[C@@]56CCCN5C[C@H](F)C6)nc4c3F)c12 [Example 111, 4-((7-(8-ethyl-7-fluoro-3-hydroxynaphthalen-1-yl)-8-fluoro-2-(((2R,7aS)-2-fluorotetrahydro-1H-pyrrolizin-7a(5H)-yl)methoxy)pyrido[4,3-d]pyrimidin-4-yl)amino)-1-(3-methyl-1H-pyrazol-1-yl) butan-1-one]
8 | 931 nM | 77 nM | 295 nM | 176 nM | 1580 nM | CCc1c(F)ccc2cc(O)cc(-c3ncc4c(N5CC6CCC(C(=O)n7ccc(C)n7)C6C5)nc(OC[C@@]56CCCN5C[C@H](F)C6)nc4c3F)c12 (stereo partly drawn) [Example 104, (2-(7-(8-ethyl-7-fluoro-3-hydroxynaphthalen-1-yl)-8-fluoro-2-(((2R,7aS)-2-fluorotetrahydro-1H-pyrrolizin-7a(5H)-yl)methoxy)pyrido[4,3-d]pyrimidin-4-yl)octahydrocyclopenta[c]pyrrol-4-yl)(3-methyl-1H-pyrazol-1-yl)methanone]
9 | 325 nM | 13 nM | 4 nM | 3 nM | 26 nM | CCc1c(F)ccc2cc(O)cc(-c3ncc4c(NCC5CC(C(=O)n6ccc(C)n6)C5)nc(OC[C@@]56CCCN5C[C@H](F)C6)nc4c3F)c12 (stereo partly drawn) [Example 93, (3-(((7-(8-ethyl-7-fluoro-3-hydroxynaphthalen-1-yl)-8-fluoro-2-(((2R,7aS)-2-fluorotetrahydro-1H-pyrrolizin-7a(5H)-yl)methoxy)pyrido[4,3-d]pyrimidin-4-yl)amino)methyl)cyclobutyl)(3-methyl-1H-pyrazol-1-yl)methanone]
10 | 517 nM | 58 nM | 35 nM | 50 nM | > 10000 nM | CCc1c(F)ccc2cc(O)cc(-c3ncc4c(N5C[C@H]6CC[C@@]6(C(=O)n6ccc(C)n6)C5)nc(OC[C@@]56CCCN5C[C@H](F)C6)nc4c3F)c12 [Example 105, ((1S,5S)-3-(7-(8-ethyl-7-fluoro-3-hydroxynaphthalen-1-yl)-8-fluoro-2-(((2R,7aS)-2-fluorotetrahydro-1H-pyrrolizin-7a(5H)-yl)methoxy)pyrido[4,3-d]pyrimidin-4-yl)-3-azabicyclo[3.2.0]heptan-1-yl)(3-methyl-1H-pyrazol-1-yl)methanone]
11 | > 10000 nM | 8490 nM | 2470 nM | 6630 nM | > 10000 nM | CCc1c(F)ccc2cc(O)cc(-c3ncc4c(N5CCC(COC)(C(=O)n6ccc(C)n6)CC5)nc(OC[C@@]56CCCN5C[C@H](F)C6)nc4c3F)c12 [Example 89, (1-(7-(8-ethyl-7-fluoro-3-hydroxynaphthalen-1-yl)-8-fluoro-2-(((2R,7aS)-2-fluorotetrahydro-1H-pyrrolizin-7a(5H)-yl)methoxy)pyrido[4,3-d]pyrimidin-4-yl)-4-(methoxymethyl)piperidin-4-yl)(3-methyl-1H-pyrazol-1-yl)methanone]
12 | 8070 nM | 1760 nM | 116 nM | 1060 nM | 589 nM | CCc1c(F)ccc2cc(O)cc(-c3ncc4c(N5CCC(OC)(C(=O)n6ccc(C)n6)CC5)nc(OC[C@@]56CCCN5C[C@H](F)C6)nc4c3F)c12 [Example 88, (1-(7-(8-ethyl-7-fluoro-3-hydroxynaphthalen-1-yl)-8-fluoro-2-(((2R,7aS)-2-fluorotetrahydro-1H-pyrrolizin-7a(5H)-yl)methoxy)pyrido[4,3-d]pyrimidin-4-yl)-4-methoxypiperidin-4-yl)(3-methyl-1H-pyrazol-1-yl)methanone]
13 | 351 nM | 34 nM | 37 nM | 35 nM | 167 nM | CCc1c(F)ccc2cc(O)cc(-c3ncc4c(NC[C@@H]5C[C@@H]5C(=O)n5ccc(C)n5)nc(OC[C@@]56CCCN5C[C@H](F)C6)nc4c3F)c12 [Example 103, ((1S,2R)-2-(((7-(8-ethyl-7-fluoro-3-hydroxynaphthalen-1-yl)-8-fluoro-2-(((2R,7aS)-2-fluorotetrahydro-1H-pyrrolizin-7a(5H)-yl)methoxy)pyrido[4,3-d]pyrimidin-4-yl)amino)methyl)cyclopropyl)(3-methyl-1H-pyrazol-1-yl)methanone]
14 | 7830 nM | 1180 nM | 776 nM | 664 nM | > 10000 nM | CCc1c(F)ccc2cc(O)cc(-c3ncc4c(N5C[C@@H]6[C@H](C5)[C@@H]6C(=O)n5ccc(C)n5)nc(OC[C@@]56CCCN5C[C@H](F)C6)nc4c3F)c12 [Example 114, ((1R,5S,6R)-3-(7-(8-ethyl-7-fluoro-3-hydroxynaphthalen-1-yl)-8-fluoro-2-(((2R,7aS)-2-fluorotetrahydro-1H-pyrrolizin-7a(5H)-yl)methoxy)pyrido[4,3-d]pyrimidin-4-yl)-3-azabicyclo[3.1.0]hexan-6-yl)(3-methyl-1H-pyrazol-1-yl)methanone]
